Marks after values point to notes of the source that are not given here.
Experiments:
[1] = tested on: human large cell lung carcinoma LXFL-529; assay: Tumor growth inhibition, s.c. LXFL-529 xenograft in nude mice; assay type: in vivo, NMRI nu/nu mice; details: Table 14; for Tumor volume mm^3 (d 14): day 14; for RTV T/C optimum [%]: optimum day in cell
Excerpt: Mouse strain: NMRI nu/nu, female Animals supplied by: Charles River, Germany Age of mice at implantation: 5-7 weeks
The tumor xenografts LXFL-529 (Fiebig H H, Berger D P, Dengler W A, Wallbrecher E, Winterhalter B R: Combined In Vitro/In Vivo Test Procedure with Human Tumor Xenografts for New Drug Development. Contrib. Oncol., Basel, Karger, 1992, Vol. 42, pp 321-351) used in this study were derived from surgical specimen from patients treated at the University Hospital in Freiburg, Germany, and directly implanted into nude mice. Prior to surgery, most of the patients had not received any chemotherapy.
Tumor fragments were obtained from xenografts in serial passage in nude mice. After removal from donor mice, tumors were cut into fragments (4-5 mm diameter) and placed in PBS until subcutaneous implantation. Recipient mice were anaesthetized by inhalation of isoflurane. A small incision was made in the back and one tumor fragment per animal was transplanted with tweezers. The mice were monitored daily.
At randomization, tumor-bearing animals were stratified according to tumor volume into treatment and vehicle (control) groups. Only animals carrying one tumor of appropriate size (approximately 50-250 mm^3) were considered for randomization. Mice were randomized when the required number of mice qualified for randomization. The day of randomization was designated as day 0, which was also the first day of dosing.
(§1) All test items were formulated in 0.9% NaCl solution and given as i.v. bolus injection despite everolimus, which was given per oral.
(§2) Measurement of tumor volume and body weight as well as calculations of relative tumor volumes were carries out analogue to the procedure described in 1.3.

[2] = tested on: human pancreas carcinoma ASPC-1; assay: Tumor growth inhibition, s.c. ASPC-1 xenograft in nude mice; assay type: in vivo, NMRI:nu/nu mice; details: 60 mg/kg/inj. i.v.
Excerpt: The human pancreas carcinoma ASPC-1 was used as s.c. xenotransplantation model in immunodeficient female NMRI:nu/nu mice.
The cells were obtained from ATCC and are cryo-preserved within the EPO tumor bank. They were thawed, expanded in vitro and transplanted as cell suspension subcutaneously (s.c.) in female NMRI:nu/nu mice. The tumor line ASPC-1 is used for testing new anticancer drugs or novel therapeutic strategies. It was therefore selected for this study.
For experimental use 10^7 tumor cells/mouse from the in vitro passage were transplanted s.c. into the flank of each of 10 mice/group at day 0.
(§3) At palpable tumor size (30-100 mm^3) treatment started. The application volume was 0.2 ml/20 g mouse body weight. The test compounds, the vehicle controls and the reference compounds were all given intravenously (i.v.).
(§4) Tumor growth inhibition was used as therapeutic parameter. Additionally, body weight change was determined as signs for toxicity (particularly, potential hematological or gastrointestinal side effects).
Tumor diameters were measured twice weekly with a caliper. Tumor volumes were calculated according to V=(length x (width)^2)/2. For calculation of the relative tumor volume (RTV) the tumor volumes at each measurement day were related to the day of first treatment. At each measurement day the median and mean tumor volumes per group and also the treated to control (T/C) values in percent were calculated (Tables 11-13).
Descriptive statistics were performed on the data of body weight and tumor volume. […] Statistical evaluation was performed with the U-test of Mann and Whitney with a significance level of p≦0.05, using the Windows program […] 6.
All Gemcitabine-conjugates were stored in a freeze-dried form at −20° C. until use. Solutions were prepared immediately before injection by solving the conjugates in saline solution by vortexing in combination with centrifugation until a clear solution of the necessary concentration of the drug was obtained.
Gemcitabine (Gemzar®, charge A4781790 200 mg) was obtained from Lilly Deutschland GmbH and was stored in the dark at −20° C. until use. The final solution of Gemzar® was prepared immediately before injection by mixing the appropriate volume of the original stock solution (200 mg) with saline (0.9%, infusion solution, Ch.-Nr 0205A231, B. Braun Melsungen AG, Germany).

[3] = Toxicity in ASPC-1 tumor-bearing nude mice (body weight change, toxic death, blood counts); assay type: in vivo, NMRI:nu/nu mice
Experimental: as §3, §4
Individual body weights of mice were determined twice weekly and mean body weight per group was related to the initial value in percent (body weight change, BWC).
On the day of necropsy mice were sacrificed by cervical dislocation and inspected for gross organ changes.

[4] = Toxicity in LXFL-529 tumor-bearing nude mice (mortality, body weight change); assay type: in vivo; details: Table 14; days 0, 3, 7, 10 (20 mg/kg); 5 mice; at day 13
Experimental: All experiments were conducted according to the guidelines of the German Animal Welfare Act (Tierschutzgesetz). Animal health was examined prior to tumor implantation and randomization to ensure that only animals without any symptoms of disease were selected to enter testing procedures. During the experiments, animals were monitored daily regarding tumor burden, general condition, feed and water supply.
as §1, §2

[5] = days 0, 3 (10 mg/kg), 7, 10, 14 (15 mg/kg) p.o.
[6] = Table 13, days 7, 14, 21, day 27
[7] = days 0, 3, 7, 10 (20 mg/kg) i.v.

**Q.** Which results are given for `CO[C@H]1C[C@@H]2CC[C@@H](C)[C@@](O)(O2)C(=O)C(=O)N2CCCC[C@H]2C(=O)O[C@H]([C@H](C)C[C@@H]2CC[C@@H](OCCO)[C@H](OC)C2)CC(=O)[C@H](C)/C=C(\C)[C@@H](O)[C@@H](OC)C(=O)[C@H](C)C[C@H](C)/C=C/C=C/C=C/1C` [Everolimus]?
**A.** Tumor volume mm^3 (d 14) [1, 5]: 926.1 mm^3; RTV T/C optimum [%] [1, 5]: 53.9 (d 14) %

**Q.** With `Nc1ccn([C@@H]2O[C@H](CO)[C@@H](O)C2(F)F)c(=O)n1` [Gemcitabine] as the compound, how does the “RTV T/C (%) Optimum (at day)” value ([2]; Table 11, 9 injections, optimum at day 36) read?
**A.** 41.4%

**Q.** And the “Tumor volume cm^3/d 44” value ([2]; Table 11, days 9, 13, 16, 20, 23, 27, 30, 34, 40, day 44)?
**A.** 0.272 +/− 0.119* cm^3

**Q.** What about the “Tumor volume cm^3/d 28” value ([2]; Table 12, day 28) of the same compound?
**A.** 0.159 +/− 0.058* cm^3

**Q.** What about the “RTV T/C (%) Optimum (at day)” value ([2]; Table 12, optimum at day 28) of the same compound?
**A.** 23.6%

**Q.** What about the “RTV T/C (%) d 27” value [2, 6] of the same compound?
**A.** 55.1%

**Q.** And the “Tumor volume cm^3/d 27” value [2, 6]?
**A.** 0.480 +/− 0.317 cm^3

**Q.** What about the “Platelets × 10^6/ml (at day 13)” value ([3]; Table 11, 60 mg/kg/inj. i.v., day 13) of the same compound?
**A.** 915 +/− 105* × 10^6/ml

**Q.** What about the “WBC × 10^6/ml (at day 13)” value ([3]; Table 11, white blood cell count, 60 mg/kg/inj. i.v., day 13) of the same compound?
**A.** 5.22 +/− 1.47* × 10^6/ml

**Q.** And the “Toxic death (at day)” value ([3]; Table 12, 60 mg/kg/inj. i.v., 8 treatments, 8 mice, deaths at d 15, d 18)?
**A.** 2

**Q.** What about the “BWC [%] (at day)” value ([3]; Table 12, body weight change, 60 mg/kg/inj. i.v., at day 17) of the same compound?
**A.** −15%

**Q.** What about the “BWC [%] (at day)” value ([3]; mouse, in vivo, iv, 60 mg/kg) of the same compound?
**A.** −2.4 (9) %

**Q.** Which results are given for `CO[C@H]1C[C@@H]2CC[C@@H](C)[C@@](O)(O2)C(=O)C(=O)N2CCCC[C@H]2C(=O)O[C@H]([C@H](C)C[C@@H]2CC[C@@H](OC(=O)C(C)(CO)CO)[C@H](OC)C2)CC(=O)[C@H](C)/C=C(\C)[C@@H](O)[C@@H](OC)C(=O)[C@H](C)C[C@H](C)/C=C/C=C/C=C/1C` [Temsirolimus]?
**A.** Tumor volume mm^3 (d 14) [1, 7]: 1073.7 mm^3; RTV T/C optimum [%] [1, 7]: 57.1 (d 10) %; Mortality (at day) [4]: 1 (13)
